Reference: PMC6290777, “Inhalation of the prodrug PI3K inhibitor CL27c improves lung function in asthma and fibrosis” (Nature Communications, 2018)

Tests used:
[1] = Pharmacokinetics of a single dose of CL27c (i.v. or p.o.); type: in vivo, C57BL/6J mice; conditions: for Cmax: plasma; for Cmax / AUClast / AUCtot / CL (apparent total body clearance) / F (bioavailability) / Tmax / Vss / Vz / t½ (elimination half-life): label = analyte
Method: (§1) To define whether this prodrug was suitable for inhaled administration, CL27c was studied to evaluate selected ADME (absorption, distribution, metabolism, and excretion) and pharmacokinetic properties. First, stability of CL27c and CL27e was analyzed in mouse plasma (Supplementary Table 1) and in mouse, rat, and human liver microsomes in the presence of nicotinamide adenine dinucleotide phosphate (NADPH; Supplementary Table 2). Next, clearance of CL27c was analyzed in C57BL/6J mice after either intra-venous or oral administration. […] Clearance of CL27c and CL27e after oral administration could not be determined due to their low bioavailability (Supplementary Table 3). Next, pharmacokinetics after inhalation was studied in C57BL/6J mice after delivering an aerosolized micro-suspension of CL27c. As shown in Table 1 and Supplementary Fig. 1b, CL27c dose-dependently reached the lungs and its metabolite CL27e was detectable after inhalation of the highest dose. […] Therefore, the inhaled prodrug promotes local effects but prevents systemic absorption of pharmacologically relevant amounts of the active compound.
Supplementary Table 3. Pharmacokinetic parameters of a single dose of CL27c […]
I.V. (10 mg/kg) P.O. (50 mg/kg) […]
Legend:I.V,. Intravenous administration; P.O., […]; Cmax, Maximum (peak) plasma drug concentration; AUClast Area under the plasma concentration-time curve from time zero to time of last measurable concentration; AUCtot Area under the plasma-concentration time curve; t½, Elimination half -life: CL, Apparent total body clearance of CL27c from plasma; Vz, Apparent volume of distribution during terminal phase; Vss, Apparent volume of distribution at steady state;F, Bioavalability.

[2] = Pharmacokinetics of aerosolized CL27c (analysis of lung delivery); type: in vivo, C57BL/6J mice; conditions: for Lung concentration / Plasma concentration: label = analyte; for detectability in plasma after inhalation: aerosolized CL27c, traces only 1 h after the highest dose
Method: as §1
Mice were subjected to a 30-min aerosolized treatment with CL27c or vehicle (0.5% tyloxapol/saline solution)-containing solutions, where tyloxapol was added to improve distribution in the lungs. Mice were anesthetized at 1, 3, and 6 h after aerosolized treatment, the trachea was exposed and a 1.7-mm-outside-diameter polyethylene catheter was inserted and they were subsequently sacrificed. A syringe with a needle (27 G) pretreated with heparin was inserted into the vena cava above the renal veins to collect blood. After the collection of blood, lungs were subjected to bronchoalveolar lavage with three different 500 µl aliquots of acetonitrile. At the same time blood samples were centrifuged 180× g at 22 °C for 10 min, plasma supernatant was collected and treated with 1 volume of acetonitrile to precipitate proteins. Samples were then agitated on a high-speed vortex for 2 min and further mixed using a rotary shaker for 2 min. the precipitated proteins were then pelleted by centrifugation at 10,000× g for 10 min and the supernatant was transferred in a new tube. BALF and plasma extracts were subsequently subjected to Liquid chromatography-mass spectrometry.
A Nexera LC-30AD (Shimadzu, Milan, Italy) instrument equipped with a Luna C18 150 × 2.1 mm, 3 µm particle size column (Phenomenex, Milan, Italy) was used to carry out chromatography analysis. The eluents (VWR, Milan, Italy) were acetonitrile (A) and 0.1% formic acid (B) in the following gradient conditions: from 10 to 54% of solvent A in 21 min, up to 100% of A in 2 min and re-equilibration. The injection volume was 10 µL, the flow rate was […] and the column was maintained at the temperature of 40 °C. For the chromatographic separation, an octadecylsilica column was used. The employed mass analyzer was a Q-trap used in multiple reaction-monitoring (MRM) mode. With this technique, it was possible to detect and quantify simultaneously the drug and the metabolite with high selectivity and sensitivity. A QTrap-5500 (Sciex, Milan, Italy) instrument, dressed with a Turbo Ion Spray source, was utilized to analyze samples. The source parameters were: curtain gas 30 (arbitrary units, a.u.), gas1 40 (a.u.), gas2 55 (a.u.), temperature 500 °C, ion spray voltage 5500 V, declustering potential 200 (a.u), and entrance potential 11 (a.u.). The detector was used in MRM mode and the transitions for each compound were: 446 > 418 m/z and 446 > 401 m/z for CL27C (collision energy 29, collision exit potential 26 and 28, respectively); 432 > 387 m/z and 432 > 404 m/z for CL27e (collision energy 30 and 28, collision exit potential 26 and 27, respectively).

[3] = system: murine bone marrow-derived macrophages; test: BMDM migration (Boyden chamber); type: cell-based, mouse; conditions: CXCL12 100 nM and C5a 50 nM; CL27c 1 and 10 µM
Method: For the migration assay, BMDMs (isolated as above described) were pretreated with Versene (Gibco™ #15040066) to detach them from the plate, washed, and incubated with free RPMI with different concentrations of CL27c for at least 2 h. Migration assay was subsequently performed by using a Boyden chamber toward C5a (50 nM, Sigma-Aldrich #SRP4895A) and CXCL12 (100 nM, Peprotech #250-20A) chemokines for 1 h at 37 °C, 5% CO2. Migrated BMDMs, attached to the polycarbonate of the Boyden chamber, were stained with Diff-Quik® reagent (MICROPTIC S.L. #DQ-ST) and counted at the microscope (5 fields/sample). The percentage of migrated cells was calculated by relating the number of the treated cells with the control vehicle (free RPMI).

[4] = In vitro plasma stability; type: in vitro ADME, mouse
Method: as §1
Supplementary Table 1. In vitro plasma half-life (t1/2), (mouse plasma).
Values are the mean of at least triplicate determination in a single experiment.

class I PI3K = conditions: purified proteins; cited from earlier work
[5] = aerosolized 2 mg/ml CL27c, 1 h from exposure
[6] = aerosolized 2 mg/ml CL27c, 3 h from exposure
[7] = aerosolized 2 mg/ml CL27c, 6 h from exposure

Structure (SMILES)	Cmax ([1]; CL27c I.V. 10 mg/kg)	AUClast ([1]; CL27c I.V. 10 mg/kg)	AUCtot ([1]; CL27c I.V. 10 mg/kg)	CL (apparent total body clearance) ([1]; CL27c I.V. 10 mg/kg)	F (bioavailability) ([1]; CL27c I.V. 10 mg/kg)	Tmax ([1]; CL27c I.V. 10 mg/kg)	Vss ([1]; CL27c I.V. 10 mg/kg)	Vz ([1]; CL27c I.V. 10 mg/kg)	t½ (elimination half-life) ([1]; CL27c I.V. 10 mg/kg)	Cmax ([1]; CL27c P.O. 50 mg/kg)	AUClast ([1]; CL27c P.O. 50 mg/kg)	AUCtot ([1]; CL27c P.O. 50 mg/kg)	F (bioavailability) ([1]; CL27c P.O. 50 mg/kg)	Tmax ([1]; CL27c P.O. 50 mg/kg)	t½ (elimination half-life) ([1]; CL27c P.O. 50 mg/kg)	Lung concentration [2, 5]	Plasma concentration [2, 5]	Lung concentration [2, 6]	Lung concentration [2, 7]	detectability in plasma after inhalation [2]	further results
COC(=O)c1cccc(Cn2cc(-c3cccc4c(=O)cc(N5CCOCC5)[nH]c34)nn2)c1 [CL27c]	930 ng/mL	870 ng·h/mL	870 ng·h/mL	191 mL/min/kg	100%	4.8 min	13.55 L/kg	10.75 L/kg	39 min	220 ng/mL	150 ng·h/mL	390 ng·h/mL	3.40%	30 min	63 min	169.2 ± 17.7 ng/g	1.2 ± 0.1 ng/mL	34.2 ± 5.2 ng/g	41.6 ± 6.5 ng/g	generally undetectable	Lung concentration ([2]; aerosolized 0.2 mg/ml CL27c, 1 h from exposure): 32.6 ± 5.1 ng/g; Lung concentration ([2]; aerosolized 0.2 mg/ml CL27c, 3 h from exposure): 10.9 ± 0.5 ng/g; Lung concentration ([2]; aerosolized 0.2 mg/ml CL27c, 6 h from exposure): 10.9 ± 1.8 ng/g; chemotaxis of BMDM [3]: significantly reduce CXCL12- and C5a-induced chemotaxis; Concentration in mouse plasma ([4]; time point 0 min): 113.2 ± 12.8 ng/mL; Concentration in mouse plasma ([4]; time point 30 min): 6.2 ± 2.8 ng/mL; activity in PI3K enzymatic assay (class I PI3K): inactive
O=C(O)c1cccc(Cn2cc(-c3cccc4c(=O)cc(N5CCOCC5)[nH]c34)nn2)c1 [CL27e]	1900 ng/mL	980 ng·h/mL	1050 ng·h/mL	191 mL/min/kg	91%	4.8 min	13.55 L/kg	10.75 L/kg	75 min	290 ng/mL	260 ng·h/mL	280 ng·h/mL	4.80%	30 min	25.8 min	4.5 ± 1.0 ng/g	1.34 ± 0.62 ng/mL	0.1 ± 0.1 ng/g	0.5 ± 0.2 ng/g	generally undetectable	peak plasma concentration relative to CL27c ([1]; 5 min after i.v. administration of CL27c): twice more abundant than CL27c; Plasma concentration [2, 6]: <1 ng/mL; Plasma concentration [2, 7]: <1 ng/mL; Concentration in mouse plasma ([4]; time point 0 min): 45.3 ± 14.1 ng/mL; Concentration in mouse plasma ([4]; time point 30 min): 43.6 ± 7.4 ng/mL; activity in PI3K enzymatic assay (class I PI3K): potent pan-class I PI3K inhibitor, acting at nanomolar concentration
